{
  "source": "patent US11786507B2",
  "about": "“Methods of treating HIV-associated neurological disorders (HAND)” (priority 2020, dated 2023)",
  "key": {"iTat mice [1]": {"test_system": "iTat mice", "assay": "Open Field Test (OPT), locomotor activity", "format": "in vivo, mouse", "from_the_text": "(§1) Doxycycline (Dox)-inducible and astrocyte-specific HIV-1 Tat-transgenic mice (iTat) were generated as previously described.^38 Wild-type (Wt, C57BL/6) and α7 nAChR knockout mice (α7^−/−, B6.129S7-Chrna^7tm1Ba/J) were purchased from the Jackson Laboratory (Bar Harbor, ME). All the animal procedures were approved by the Institutional Animal Care and Use Committee. Mice were housed with a 12-hour light and 12-hour dark photoperiod and provided water and food ad libitum. α7^−/− iTat mice were generated by cross breeding iTat mice with α7^−/− mice. α7^−/− genotyping was slightly modified with the JumpStart™ Taq DNA Polymerase-based PCR (JumpStart™ Taq DNA Polymerase, Sigma, catalog #D9307). […] Mice of 10-14 weeks old with body weights of 20-35 grams were fed with Dox-containing diet (0.625 g/kg, Envigo, catalog #TD.01306) as stated.\n(§2) Open Field Test (OPT) and Morris Water Maze (MWZ) were performed sequentially using a computerized video tracking system (Anymaze, Stoelting) to determine the spontaneous locomotor activity and spatial learning and memory, respectively. For OPT, each mouse was allowed to move freely around a clear acrylic chamber (40.5×40.5×30.5 cm) for 10 minutes. Travel distance and maximum speed was determined by the AnyMaze software. For MWZ, a circle pool (1.2 m diameter) surrounded with a curtain was divided into four equal quadrants, and four signs with different shape were fixed onto the middle of each quadrant wall above the opaque water (24±1° C.). A hidden platform (1.5 cm below water surface) was put into a certain quadrant. Two stages consisting of 5-day training and probe test were carried out. In the training stage, four trials with a 15-20 minute interval were conducted in the every-day training, and for each trial mice were allowed to freely seek the platform within 90 seconds right after they were randomly put into one quadrant facing to the pool wall. If the mice found the platform within 90 seconds, 10 seconds would be added to allow them staying on the platform for memorizing, however, if failed, they would be directed toward the platform and allowed to stay on it for 15 seconds. Mice that were immobile or floating and unable to find the platform during the training stages were excluded from the experiments. Probe test was carried out on the next day following the 5-day training stage with a 60 seconds trial, and the platform was removed to prevent the mice from climbing onto it during the testing. One day after the behavioral tests, mice were euthanized and the brains were harvested.\n(§3) To determine if α7 nAChR is involved in HAND, iTat mice were fed with Dox-containing food pellets for 7 days, injected s.c. with a well-studied and highly specific positive allosteric modulator (PAM) PNU-120596 of α7 nAChR^73,74 for 5 days, and then subjected to open field test (OPT) for locomotor activity on day 14, and Morris Water Maze test (MWZ) for learning and spatial memory on day 15-20, and euthanized to harvest tissues on day 21 (FIG. 1A). Dox-containing food pellet feeding and PAM injection continued during the next 7 days of behavioral tests. To minimize the effects of injection on behavioral tests, PAM was injected 5 hours after each behavioral test."}, "iTat mice [2]": {"test_system": "iTat mice", "assay": "Morris Water Maze (MWZ), training stage and probe test", "format": "in vivo, mouse", "from_the_text": "as §1, §2\nas §3, with “[…],” for “injected s.c. with a well-studied and highly specific positive allosteric modulator (PAM) PNU-120596 of α7 nAChR^73,74 for 5 days,”"}, "iTat mice [3]": {"test_system": "iTat mice", "assay": "Western blotting of SYP, PSD-95, GFAP, Iba-1 in cortex and hippocampus", "format": "in vivo, mouse", "conditions": "CORT and HIP, SB239063-treated iTat vs Wt", "from_the_text": "as §1\nA RIPA buffer (50 mM Tris.HCl, pH 8.0, 280 mM NaCl, 0.5% NP-40, 1% C24H39NaO4, 0.2 mM EDTA, 2 mM EGTA and 10% glycerol) supplemented with protease inhibitors (Millipore-Sigma, catalog #S8830) and phosphatase inhibitors (Millipore-Sigma, catalog #4906845001) was used to lyse the brain tissues and cultured cells with brief sonication on ice. Protein concentrations of the lysates were determined using a Bio-Rad DC protein assay kit (Bio-Rad, catalog #5000111). Lysates were denatured in the SDS-PAGE loading buffer at 100° C. for 10 min, then electrophoretically separated by 8-15% SDS-PAGE, blotted onto 0.45 μm polyvinylidene fluoride membrane (GE Healthcare Life Sciences, catalog #10600023), and probed using appropriate antibodies against PSD-95 (Abcam, catalog #ab18258, and 1:2000 dilution), SYP (Abcam, catalog #ab8049, and 1:1000 dilution), Iba-1 (Wako, catalog #016-20001, and 1:500 dilution) and GFAP (DAKO, catalog #z330s, and 1:2000 dilution), p-p38 (Santa Cruz, catalog #sc-166182, and 1:1000 dilution), p38 (Santa cruz, catalog #sc-535, and 1:1000 dilution), p-JNK (Santa cruz, catalog #sc-6254, and 1:1000 dilution), JNK (Santa cruz, catalog #sc-571, and 1:1000 dilution), p-ERK (Santa cruz, catalog #sc-7383, and 1:1000 dilution), and ERK (Santa cruz, catalog #sc-514302, and 1:1000 dilution), α7 nAChR (Alomone, catalog #ANC-007, and 1:1000 dilution) and β-actin (Sigma-Aldrich, catalog #A1978, and 1:2000 dilution). A Bio-Rad ChemicDoc imaging system (Bio-Rad) and Image J were used for image capturing and analysis, respectively. […]"}, "[4]": {"test_system": "hippocampal slice cultures", "conditions": "cited from earlier work"}, "striatal neurons": {"test_system": "striatal neurons", "conditions": "cited from earlier work"}, "[5]": {"test_system": "cerebellar granule neurons", "conditions": "cited from earlier work"}, "[6]": {"conditions": "iTat vs Wt mice, SB239063 15 mg/kg/day i.p."}},
  "data": [
    {"smiles": "COc1nccc(-c2c(-c3ccc(F)cc3)ncn2C2CCC(O)CC2)n1", "note": "(stereo not drawn) [SB239063]", "values": [
      {"measurement": "OPT travel distance and maximum speed, Wt vs iTat mice", "setting": "iTat mice [1]; SB239063 15 mg/kg/day i.p., male and female", "value": "no significant differences in travel distance and maximum speed between Wt and iTat mice"},
      {"measurement": "OPT performance, female vs male mice", "setting": "iTat mice [1]; Wt and iTat mice in response to SB239063", "value": "both female Wt and female iTat mice performed better in the OPT than male Wt and male iTat mice"},
      {"measurement": "OPT travel distance, SB239063-treated vs vehicle-treated", "setting": "iTat mice [1]; female Wt and iTat mice, 15 mg/kg/day i.p.", "value": "difference of travel distance between SB239063-treated and vehicle-treated female mice"},
      {"measurement": "MWZ probe test platform entries, time at/distance to target quadrant, time at/distance to platform", "setting": "iTat mice [2]; SB239063-treated female iTat mice vs vehicle-treated female Wt and iTat and SB239063-treated female Wt", "value": "fewer platform entries, shorter time at target quadrant, distance to target quadrant, time at platform, and distance to platform"},
      {"measurement": "Cognition, learning and memory effects", "setting": "iTat mice [2]; Wt mice treated with SB239063", "value": "Some beneficial effects"},
      {"measurement": "MWZ probe test latency to platform", "setting": "iTat mice [2]; female iTat mice, SB239063 vs vehicle", "value": "longer latency to platform than vehicle-treated female iTat mice"},
      {"measurement": "MWZ training stage cumulative distance", "setting": "iTat mice [2]; [6]", "value": "difference between SB239063-treated male iTat and male Wt mice on day 2 and 3 and female iTat and Wt mice on day 4"},
      {"measurement": "MWZ training stage escape latency", "setting": "iTat mice [2]; [6]", "value": "even longer escape latency than Wt mice, with differences on day 3 and 4 for male mice"},
      {"measurement": "MWZ probe test platform entries, distance to target quadrant, distance to platform", "setting": "iTat mice [2]; male iTat vs male Wt mice, SB239063 15 mg/kg/day i.p.", "value": "fewer platform entries, shorter distance to target quadrant and distance to platform than Wt male mice"},
      {"measurement": "SYP, GFAP and Iba-1 expression", "setting": "iTat mice [3]; female mice", "value": "lower SYP, GFAP and Iba-1 with differences than SB239063-treated Wt mice"},
      {"measurement": "PSD-95 expression", "setting": "iTat mice [3]; male and female", "value": "lower PSD-95 than SB239063-treated Wt mice"},
      {"measurement": "SYP and GFAP expression", "setting": "iTat mice [3]; male mice", "value": "no differences of SYN and GFAP (except HIP) from SB239063-treated Wt mice"}
    ]},
    {"smiles": "Oc1ccc(-c2nc(-c3ccc(F)cc3)c(-c3ccncc3)[nH]2)cc1", "note": "[SB202190]", "values": [
      {"measurement": "Tat-induced inflammation and oxidation", "setting": "[4]", "value": "decreased"}
    ]},
    {"smiles": "C[S+]([O-])c1ccc(-c2nc(-c3ccc(F)cc3)c(-c3ccncc3)[nH]2)cc1", "note": "(stereo not drawn) [SB203580]", "values": [
      {"measurement": "Tat-induced neurite losses and cell death", "setting": "striatal neurons", "value": "failed to block"},
      {"measurement": "Tat-induced apoptosis", "setting": "[5]", "value": "prevented"}
    ]}
  ]
}
